First: CCCc1cc(=O)[nH]c(-c2ccccc2)n1
Second: O=c1[nH]c2ccc(NCc3ccccc3Cl)cc2[nH]1
The melting point of the first is lower: 149 to 151 °C for the first, 227 to 229 °C for the second.

First: O=C(O)C=Cc1ccc(OC(F)(F)C(F)C(F)(F)F)cc1 (stereo unspecified)
Second: N#Cc1c(F)cccc1Oc1ccc(C(=O)O)cc1
The melting point of the first is lower: 159 to 163 °C for the first, 186 to 188 °C for the second.

First: COC(=O)c1ccc(S(N)(=O)=O)c([N+](=O)[O-])c1
Second: CC(=O)c1ccc(C)c([N+](=O)[O-])c1
The melting point of the first is higher: 139 to 141 °C for the first, 59 to 62 °C for the second.

First: O=C(O)CSc1nnc(-c2ccccc2)n1-c1ccc(Cl)cc1
Second: O=C(Cc1ccc(Cl)cc1)c1ccccn1
The melting point of the first is higher: 224 to 226 °C for the first, 49 to 51 °C for the second.

Compared with `O=C(O)CCNC(=O)c1ccccc1Cl`, `O=C(O)CSc1ccccc1Cl` is higher in melting point: 82 to 84 °C for the first, 115 to 117 °C for the second.

Compared with `O=c1ccc(-c2ccc3c(c2)OCCCO3)n[nH]1`, `CC(N)c1ccc2c(c1)NC(=O)CO2` (stereo unspecified) is lower in melting point: 199 to 201 °C for the first, 130 to 132 °C for the second.

First: O=C(O)c1ccc2c(c1)S(=O)(=O)N(CC1CCCO1)C2=O (stereo unspecified)
Second: O=C(O)C1CCCN1S(=O)(=O)c1cccc([N+](=O)[O-])c1 (stereo unspecified)
The melting point of the first is lower: 159 to 161 °C for the first, 182 to 184 °C for the second.

Compared with `CCCCCCCC(=O)NCCCC(=O)O`, `COCCN(CC(=O)O)C(=O)OC(C)(C)C` is higher in melting point: 69 to 71 °C for the first, 76 to 78 °C for the second.

Compared with `Nc1ccc(C(=O)N2CCc3ccccc32)cc1`, `Nc1ccc(C(=O)NCc2ccccc2)cc1` is lower in melting point: 185 to 187 °C for the first, 113 to 115 °C for the second.

First: N#Cc1cnc2ccccc2c1OCCO
Second: N#Cc1cc(-c2ccccc2)c(-c2ccccc2)nc1Cl
The melting point of the first is higher: 172 to 174 °C for the first, 129 to 131 °C for the second.

First: CC(=O)c1sc2nc(CCl)[nH]c(=O)c2c1C
Second: O=c1[nH]c(CCl)nc2sc3c(c12)CCCC3
The melting point of the first is lower: 247 to 249 °C for the first, 265 to 267 °C for the second.

Compared with `Cc1nn(Cc2ccc(F)cc2)c(Cl)c1C=O`, `Cc1nc(-c2ccc(Cl)cc2)sc1C(C)O` (stereo unspecified) is higher in melting point: 49 to 51 °C for the first, 119 to 121 °C for the second.

First: NC(=S)CN1CCOCC1
Second: N#Cc1c(N2CCCC2)n[nH]c1N
The melting point of the first is lower: 178 to 180 °C for the first, 208 to 210 °C for the second.

Compared with `CCCCOc1ccc(C(C)=O)cc1OC`, `COc1cc(C(C)=O)ccc1S` is higher in melting point: 47 to 49 °C for the first, 58 to 60 °C for the second.

First: CC(=O)c1ccc(-c2ccc(Br)s2)cc1
Second: CS(=O)(=O)c1cccc(C(=O)c2ccc(Cl)cc2)c1
The melting point of the first is higher: 148 to 150 °C for the first, 107 to 109 °C for the second.

Compared with `Cc1cc(O)cc(O)n1`, `CSc1nc(N)cc(O)n1` is lower in melting point: 324 to 327 °C for the first, 279 to 281 °C for the second.

First: COc1ccc(N)cc1S(=O)(=O)NC1CC1
Second: CS(=O)(=O)Cc1ccc(N)cc1F
The melting point of the first is higher: 163 to 165 °C for the first, 152 to 154 °C for the second.

Compared with `Cc1ccc(N2CC(C(=O)O)CC2=O)cc1` (stereo unspecified), `Cc1ccc(S(=O)(=O)CC(C)O)cc1` (stereo unspecified) is lower in melting point: 184 to 186 °C for the first, 76 to 78 °C for the second.

First: O=C1CCCc2c(Br)cccc21
Second: COc1cccc2c1OCCC2=O
The melting point of the first is lower: 50 to 52 °C for the first, 80 to 82 °C for the second.

First: CC(NC(=O)c1ccccc1N)c1ccccc1 (stereo unspecified)
Second: Cc1cc2ncn(C(C)c3ccccc3)c2cc1C (stereo unspecified)
The melting point of the first is lower: 127 to 129 °C for the first, 169 to 171 °C for the second.

First: Nc1ccc(N2CCc3sccc3C2)cc1
Second: Cc1ccc(Oc2ccc(N)cc2)cc1
The melting point of the first is lower: 61 to 63 °C for the first, 118 to 122 °C for the second.

Compared with `CC(C)(C)c1ccc(Nc2ncccc2C(N)=S)cc1`, `Clc1ccc2nc(-c3ccccn3)[nH]c2c1` is lower in melting point: 152 to 154 °C for the first, 133 to 135 °C for the second.

First: OCc1ccc(-n2ccnc2)nc1
Second: N#Cc1cnn(-c2ccncc2)c1N
The melting point of the first is lower: 128 to 130 °C for the first, 273 to 275 °C for the second.

First: Nc1ncc(C(O)(C(F)(F)F)C(F)(F)F)s1
Second: Cc1cccc2sc(NC(=O)OCC(F)(F)F)nc12
The melting point of the first is lower: 184 to 186 °C for the first, 220 to 222 °C for the second.

First: CSCCC(NC(=O)c1cccc(C)c1)C(=O)O (stereo unspecified)
Second: Cc1ccc2c(CC(=O)O)cc(=O)oc2c1
The melting point of the first is lower: 115 to 117 °C for the first, 209 to 211 °C for the second.

Compared with `Cn1c(=O)c2nc(SCC(=O)O)[nH]c2n(C)c1=O`, `Cc1cc(Br)cc2c(O)c(C(=O)O)cnc12` is higher in melting point: 259 to 261 °C for the first, 299 to 301 °C for the second.

Compared with `CCOc1cc(C=CC#N)ccc1OC`, `COc1cc(C=O)ccc1OCCC(=O)O` is higher in melting point: 57 to 59 °C for the first, 130 to 132 °C for the second.

Compared with `NS(=O)(=O)C(F)F`, `CC(=O)c1ccc(S(=O)(=O)CC(F)F)cc1` is higher in melting point: 59 to 61 °C for the first, 97 to 99 °C for the second.

First: OCC1CSCCN1 (stereo unspecified)
Second: CC1CCCC(NC(=O)OC(C)(C)C)(C(=O)O)C1 (stereo unspecified)
The melting point of the first is lower: 84 to 86 °C for the first, 149 to 151 °C for the second.

Compared with `COc1ccc(CC#N)cc1[N+](=O)[O-]`, `CC(=O)NCCOc1ccc(N)cc1` is higher in melting point: 84 to 86 °C for the first, 92 to 94 °C for the second.

`O=C(O)c1cc(S(=O)(=O)Cl)c(Br)cc1F` and `Cc1sc(C(=O)O)cc1S(=O)(=O)Cl` cannot be ordered by melting point: 147 to 149 °C for the first, 148 to 150 °C for the second.

First: Cc1cn2cccnc2n1
Second: Cc1ccc(C)c2sc(N)nc12
The melting point of the first is lower: 97 to 99 °C for the first, 151 to 153 °C for the second.

Compared with `Cc1cccc(-c2nnc(CCl)o2)c1`, `Cc1cc(Cl)cc2nc(Cl)oc12` is higher in melting point: 57 to 59 °C for the first, 59 to 61 °C for the second.

Compared with `OCc1ccccc1Oc1ccc(I)cc1`, `O=C(O)c1ccccc1-c1cncnc1` is higher in melting point: 65 to 67 °C for the first, 228 to 230 °C for the second.

First: Cc1nn(C(C)(C)C)c(C)c1N
Second: NN1C(=O)NC2(CCCCC2)C1=O
The melting point of the first is lower: 54 to 56 °C for the first, 164 to 166 °C for the second.

Molecule `O=C1Nc2ccc(Br)cc2C12CCCC2` has a melting point of 201 to 203 °C.

Reference: a melting point compilation (Tetko et al.)
